The text below walks through data of patent US9040488B2, “Imino sugar derivatives demonstrate potent antiviral activity and reduced toxicity” (Baruch S. Blumberg Institute, priority 2008, dated 2015).

In general, EC50 refers to the midpoint of the concentration-response curve. By EC90 is commonly meant the concentration at which the effect reaches the 90% level. In general, CC50 refers to the concentration that lowers cell viability or growth by half.

Read-outs that look alike come from different tables or passages of the source.

One data set deals with HCV. In words: HCV infection, intracellular HCV RNA level by real-time RT-PCR. The format is cell-based, hepatitis C virus. As to conditions: for EC50: read-out: EC50 against HCV infection; for EC90: read-out: EC90 against HCV infection. The text has this: Another embodiment of the present invention is the use of imino sugar glucosidase inhibitors in the treatment of HCV. Imino sugar glucosidase inhibitors show equal or better efficacy than celgosivir.
(Quantitative PCR measures a nucleic acid by following its amplification.)

Data set [1] is described as follows: Cytotoxicity (CC50) in the HCV infection test. It is filed as cell-based. As to conditions: Table 3, HCV infection test.
For data set [2], the system named is West Nile virus (2002 Texas isolate). The data set is described as follows: microbe, parasite or virus in culture. The format is cell-based.
The subject of another data set is BHK cells. In words: Cytotoxicity (MTT) in BHK cells. It is filed as cell-based. As to the method: (§1) Compound toxicity assay. Compound cytotoxicity was assessed by using an MTT based toxicity assay kit (Sigma, St. Louis, Mo.) as described elsewhere. Briefly, cells cultured under conditions identical to those used in the viral assay were incubated with various concentrations of the compound for 72 hours. MTT was added to the media to a final concentration of 0.5 mg/ml and was incubated for 3 hours at 37 C. After the culture media was removed, formazan crystals was dissolved by adding 150 ul of solubilization solution (10% Triton X-100, 0.1N HCl in anhydrous isopropanol) for 15-30 minutes. The absorbance of the dissolved formazan was measured spectrophotometrically at 570 nm with absorbance at 690 nm as background.

For data set [3], the system named is Dengue virus (DV) serotype 2, New Guinea C. The data set is described as follows: microbe, parasite or virus in culture. It is filed as cell-based.
The next data set concerns Ebola (Zaire strain). It is filed as cell-based, Ebola virus.
Data set [4] has as its system Tacaribe virus (21573 strain). It is filed as cell-based.
The subject of data set [5] is Junin virus (JUNV, Romero strain). It is filed as cell-based.
Data set [6] has as its system BVDV (NADL strain). It is filed as cell-based, Bovine viral diarrhea virus.
For another data set, the system named is MDBK cells. The data set is described as follows: Cytotoxicity (MTT) in MDBK cells. It is filed as cell-based. As to the method: as §1
Data set [7] can be described thus: Cytotoxicity (MTT) in BHK cells. It is filed as cell-based. The conditions noted are these: hamster; BHK cells (for Dengue and West Nile virus), 3 days treatment. As to the method:
as §1

In data set [8] the test system is BVDV (NADL strain). As to conditions: tissue culture, test viruses such as BVDV and DV; cited from earlier work.
For data set [9] the following is noted: in vivo, po, 100 mg/kg.
Where [10] appears, read: BHK cells (for Dengue and West Nile virus), 3 days treatment, read-out: CC50.
The mark [11] stands for this setting: Table 5, read-out: CC50 in BHK cells.

For `O[C@H]1[C@H](O)[C@@H](O)CN2CC[C@H](O)[C@H]12` [Castano., Castanospermin], in the data set on HCV, the EC50 is 295 µM and the EC90 is greater than 500 µM. Further, in data set [1], the CC50 was greater than 500 µM.
For the compound `CCCCN1C[C@H](O)[C@@H](O)[C@H](O)[C@H]1CO` [NBDNJ, N-butyl-DNJ, reference compound], in data set [2] (read-out: West Nile EC50), the EC50 was greater than 100 µM. The CC50 in the data set with BHK cells (setting [10]) was in the range of 20 to 100 µM.
With `OC[C@@H]1[C@@H](O)[C@H](O)[C@@H](O)CN1CCCCCC1(O)CCCCC1` [OSL95-II, N-pentyl-(1-hydroxycyclohexyl)-DNJ, reference compound], the EC50 in data set [3] (read-out: DV EC50) was determined as 4 µM; in data set [3] (read-out: Dengue EC50), 4 µM; in data set [2] (read-out: WNV EC50), 4.5 µM; in data set [2] (read-out: West Nile EC50), 4.5 µM; with Ebola (Zaire strain), 0.6 µM; in data set [4], 29 µM. Further, the EC50 in data set [5] worked out at 0.75 µM; with HCV, 6 µM; with BVDV (NADL strain) [6], 10.9 ± 2.7 µM. Moreover, the EC90 was 8.7 µM in data set [3] (read-out: DV EC90); 8.7 µM in data set [3] (read-out: Dengue EC90); 8 µM in the data set on Ebola (Zaire strain); greater than 100 µM in data set [4]; 68 µM in data set [5]; 125 µM in the data set with HCV. Besides, in the data set on BVDV (NADL strain) [6], the EC90 was greater than 100 µM. The CC50 in the data set with BHK cells (setting [10]) was greater than 100 µM; in the data set with BHK cells (setting [11]) it was greater than 100 µM; in [1], greater than 500 µM; in the data set with MDBK cells it was greater than 500 µM; with vero cells, greater than 500 µM.
As to `CC(=O)O.OC[C@@H]1[C@@H](O)[C@H](O)[C@@H](O)CN1CCCCCCC1(O)CCCCC1` [CM-9-70], in the data set on BVDV (NADL strain) [6], the EC50 was found to be 18 µM, the EC90 amounted to 82.5 µM and the anti-BVDV activity result is reported as “retains similar antiviral activity”. Also, the CC50 in the data set with MDBK cells is greater than 500 µM.
`C[C@@H]1CCCCC1OCCCCCCN1C[C@H](O)[C@@H](O)[C@H](O)[C@H]1CO` (stereo partly shown) [PBDNJ0804]: the EC50 in data set [3] (read-out: DV EC50) worked out at 0.075 µM; in [3] (read-out: Dengue EC50), 0.08 µM; in [2] (read-out: WNV EC50), 3.5 µM; in data set [2] (read-out: West Nile EC50) it was 3.5 µM; in the data set on Ebola (Zaire strain), 0.5 µM; in data set [4], 1.5 µM. In addition, the results for the EC50 (in data set [5]; with BVDV (NADL strain) [6]) were 0.45 µM and 3 ± 1.4 µM, respectively. For the same compound, the EC90 in data set [3] (read-out: DV EC90) was found to be 0.6 µM; in data set [3] (read-out: Dengue EC90), 0.6 µM; in [2] (read-out: WNV EC90) it was 33 µM; in [2] (read-out: West Nile EC90), 33 µM; in the data set on Ebola (Zaire strain) it was 5 µM; in data set [4], 50 µM. In addition, the values for the EC90 (in [5]; with BVDV (NADL strain) [6]) were 0.9 µM and 13 ± 1.7 µM, respectively. In data set [5], the “antiviral activity against Junin virus infection” value is listed as “most potent”. The CC50 in the data set on BHK cells (setting [10]) was 65 µM; with BHK cells (setting [11]), 70 µM; in the data set on MDBK cells, greater than 500 µM; with vero cells, 500 µM.
Regarding `CC(C)[C@@H]1CC[C@@H](C)C[C@H]1OCCCCCCN1C[C@H](O)[C@@H](O)[C@H](O)[C@H]1CO` [PBDNJ0801], the EC50 in data set [3] (read-out: DV EC50) came out at 0.1 µM; in data set [3] (read-out: Dengue EC50), 0.1 µM; in data set [2] (read-out: WNV EC50), 4.75 µM; in data set [2] (read-out: West Nile EC50), 4.75 µM; in the data set with BVDV (NADL strain) [6] it was 1.6 ± 1.2 µM. Moreover, the EC90 in data set [3] (read-out: DV EC90) was 0.2 µM; in [3] (read-out: Dengue EC90), 0.2 µM; in [2] (read-out: WNV EC90), 19 µM; in data set [2] (read-out: West Nile EC90) it was 19 µM; in the data set with BVDV (NADL strain) [6], 14.8 ± 3.9 µM. For the same compound, the CC50 in the data set on BHK cells (setting [10]) is 80 µM; in the data set with BHK cells (setting [11]), 70 µM; in the data set on MDBK cells it was 235 ± 21 µM.
For `Cc1ccc(C)c(OCCCCCCN2C[C@H](O)[C@@H](O)[C@H](O)[C@H]2CO)c1` [PBDNJ0803], the EC50 is 0.1 µM in [3] (read-out: DV EC50); 0.1 µM in [3] (read-out: Dengue EC50); 1.5 µM in [2] (read-out: WNV EC50); 1.5 µM in [2] (read-out: West Nile EC50); 2 µM in data set [4]; 0.5 µM in [5]. Besides, the response in the data set on BVDV (NADL strain) [6] was half-maximal at 3.7 ± 3.8 µM (EC50). Besides, the EC90 in data set [3] (read-out: DV EC90) came out at 0.6 µM; in [3] (read-out: Dengue EC90), 0.6 µM; in [2] (read-out: WNV EC90) it was 20 µM; in data set [2] (read-out: West Nile EC90), 20 µM; in [4], 75 µM; in data set [5], 2 µM. The 90% effect level with BVDV (NADL strain) [6] (EC90) was put at 29.2 ± 29 µM. Also, the “antiviral activity against Junin virus infection” value in data set [5] is “most potent”. The CC50 in the data set with BHK cells (setting [10]) was 85 µM; in the data set with BHK cells (setting [11]), 75 µM; in the data set with MDBK cells it was 485 ± 21 µM; in the data set with vero cells it was 300 µM.
`OC[C@H]1NC[C@H](O)[C@@H](O)[C@@H]1O` [DNJ, deoxynojirimycin, reference compound]: the EC50 in data set [3] (Dengue virus, BHK, read-out: Dengue EC50) was 500 µM; in data set [2] (West Nile virus, BHK, read-out: West Nile EC50), greater than 500 µM. For the same compound, the CC50 at 72 h in data set [7] is 20 to 100 µM.
With `CCCC(=O)O[C@H]1CN2CC[C@H](O)[C@@H]2[C@@H](O)[C@@H]1O` [Celgosivir, celgosivir], in the data set on HCV (Hepatitis C virus), the EC50 amounted to 3.8 µM and the EC90 amounted to 100 µM. This compound also displayed a CC50 in data set [1] greater than 500 µM.
Take `CCCCCCCCCN1C[C@H](O)[C@@H](O)[C@H](O)[C@H]1CO` [NNDNJ, N-nonyl-DNJ, reference compound]: the EC50 in [3] (read-out: Dengue EC50) is 1 to 4 µM; in [2] (read-out: West Nile EC50) it was 4 µM; with Ebola (Zaire strain), 12 µM; in [4] it was 3 µM; in [5], 0.7 µM; with HCV, 2.5 µM. Besides, in the data set on BVDV (NADL strain) [6], the EC50 worked out at 7.3 ± 0.4 µM. The EC90 in data set [3] (read-out: Dengue EC90) was 3 to 10 µM; with Ebola (Zaire strain) it was 85 µM; in [4], 70 µM; in data set [5], greater than 100 µM; in the data set with HCV, greater than 500 µM; in the data set with BVDV (NADL strain) [6] it was 71 ± 7.1 µM. For the same compound, the CC50 was 20 to 100 µM in the data set on BHK cells (setting [10]), 280 µM in data set [1], 245 ± 134 µM with MDBK cells and 100 µM with vero cells. For the same compound, in the data set with BVDV (NADL strain) [8], the “potency compared with DNJ or short alkyl side chain DNJ derivatives such as NBDNJ” value is 100 times.
`CC(=O)O.CC1CCC(OCCCCCCN2C[C@H](O)[C@@H](O)[C@H](O)[C@H]2CO)CC1` (stereo partly shown) [CM-9-78]: the EC50 in data set [3] (read-out: DV EC50) turned out to be 6.75 µM; in [3] (read-out: Dengue EC50), 6.8 µM; in the data set on Ebola (Zaire strain), 7.5 µM; in data set [4], 10 µM; in data set [5], 2 µM; in the data set with HCV, 5 µM. Further, the EC50 in the data set on BVDV (NADL strain) [6] was 8.1 ± 3.4 µM. The EC90 is 13 µM in data set [3] (read-out: DV EC90); 13 µM in data set [3] (read-out: Dengue EC90); greater than 100 µM in the data set on Ebola (Zaire strain); greater than 100 µM in [4]; greater than 100 µM in data set [5]; 160 µM in the data set with HCV. This compound yielded an EC90 in the data set with BVDV (NADL strain) [6] of 59 ± 22 µM. For the same compound, the CC50 in the data set with BHK cells (setting [10]) was greater than 100 µM; in the data set on BHK cells (setting [11]), greater than 40 µM; in data set [1] it was greater than 500 µM; with MDBK cells it was greater than 500 µM; with vero cells, greater than 500 µM. The plasma concentration result in data set [9] is “above 30 μM”.
